Patent publication EP4122499A1, “FIBROBLAST ACTIVATION PROTEIN INHIBITORS AND USE THEREOF” (3B Pharmaceuticals GmbH, priority 2021, dated 2023)

Experiments:
[1] = Plasma stability assay, mouse plasma; type: in vitro ADME; conditions: 37°C
Protocol: (§1) In order to determine the stability of selected compounds of the invention in human and mouse plasma, a plasma stability assay was carried out. Such plasma stability assay measures degradation of compounds of the present invention in blood plasma. This is an important characteristic of a compound as compounds, with the exception of pro-drugs, which rapidly degrade in plasma, generally show poor in vivo efficacy. […] The stability is sufficient for the diagnostic, therapeutic and theragnostic use of these compounds according to the present invention.
(§2) The plasma stability samples were prepared by spiking 50 µl plasma aliquots (all sodium citrate 3.8%) with 1 µl of a 0.5 mM compound stock solution in DMSO. After vortexing, the samples were incubated in a Thermomixer at 37°C for 4 or 6 hours. After incubation the samples were stored on ice until further treatment. All samples were prepared in duplicates.
A suitable internal standard was added to each sample (1 µl of a 0.5 mM stock solution in DMSO). Protein precipitation was performed using two different methods depending on the compound conditions as indicated in Table 8. • A) 250 µl of acetonitrile containing 1% trifluoroacetic acid was added. […] After incubation at room temperature for 30 min the precipitate was separated by centrifugation. To 100 µl of the supernatant 10 µl of 1% formic acid was added followed by further incubation at 60°C for 10 min to complete the formation of the zinc chelate, if the compound contains a free DOTA moiety.
The determination of the analyte in the clean sample solutions was performed on an Agilent 1290 UHPLC system coupled to an Agilent 6530 Q-TOF mass spectrometer. The chromatographic separation was carried out on a Phenomenex BioZen XB-C18 HPLC column (50 x 2 mm, 1.7 µm particle size) with gradient elution using a mixture of 0.1% formic acid in water as eluent A and acetonitrile as eluent B (2% B to 41% in 7 min, 800 µl/min, 40°C). Mass spectrometric detection was performed in positive ion ESI mode by scanning the mass range from m/z 50 to 3000 with a sampling rate of 2 / sec.
From the mass spectrometric raw data the ion currents for the double or triple charged monoisotopic signal was extracted for both, the compound and the internal standard.
(§3) Quantitation was performed by external matrix calibration with internal standard using the integrated analyte signals.
The result is stated as "% intact compound remaining after 4 h or 6 h" and means that from the amount of material at the start of the experiment the stated percentage is detected as unchanged material at the end of the experiment by LC-MS quantification. Since all compounds are more than 50% intact after at least 4 h they are considered as stable enough for diagnostic and therapeutic applications. Table 8: Results of the plasma stability assay

HEK-FAP cells = target: T1, HEK-FAP cells (Homo sapiens, UniProt Q12884); experiment: LigandTracer assay with 111In-labeled compounds; type: binding; conditions: 111In-labeled compound; for kon: association rate, read-out: ka
T1 construct: expressed in transfected cells; host or cells: HEK293
T1 sequence (Q12884 1-760): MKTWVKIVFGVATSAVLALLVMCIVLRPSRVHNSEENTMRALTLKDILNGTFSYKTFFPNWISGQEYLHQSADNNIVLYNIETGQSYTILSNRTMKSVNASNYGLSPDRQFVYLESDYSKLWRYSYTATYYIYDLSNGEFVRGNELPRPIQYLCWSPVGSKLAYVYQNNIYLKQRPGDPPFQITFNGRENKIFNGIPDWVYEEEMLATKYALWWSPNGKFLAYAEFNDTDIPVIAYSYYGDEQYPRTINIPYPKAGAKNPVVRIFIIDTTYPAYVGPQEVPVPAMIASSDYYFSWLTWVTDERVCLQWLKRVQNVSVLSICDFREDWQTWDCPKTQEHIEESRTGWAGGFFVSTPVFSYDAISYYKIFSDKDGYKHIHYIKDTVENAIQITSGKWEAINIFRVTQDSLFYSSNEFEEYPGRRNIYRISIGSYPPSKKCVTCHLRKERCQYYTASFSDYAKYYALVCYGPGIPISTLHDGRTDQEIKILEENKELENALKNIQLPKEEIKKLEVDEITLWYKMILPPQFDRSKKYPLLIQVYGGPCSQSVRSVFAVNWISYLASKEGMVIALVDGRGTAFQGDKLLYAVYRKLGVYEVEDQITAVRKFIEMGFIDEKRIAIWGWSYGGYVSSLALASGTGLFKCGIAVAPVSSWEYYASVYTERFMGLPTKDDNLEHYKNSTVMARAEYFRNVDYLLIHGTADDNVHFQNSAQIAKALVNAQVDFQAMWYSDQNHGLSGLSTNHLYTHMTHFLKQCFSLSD
Protocol: HEK293 cells (human embryonic kidney cells) were engineered to express the human FAP. […] Cell concentrations were adjusted to 3 x 10^5 mL^-1, and 3.000 µL of the suspension was dispensed into a poly-lysine-coated, clear cell dish (10cm). Approximately 24 hours after re-seeding, the medium was replaced by assay medium (Ham's medium with 20 mM HEPES) containing 1 % FCS. The dish was placed in the LigandTracer® device and a baseline measurement was obtained using the LigandTracer® Control software (version 2.4). […] To determine the dissociation rate (kd) the cells were washed and subsequently incubated with fresh assay medium for several hours. […] Table 14 Results of the LigandTracer® assay

[2] = Plasma stability assay, human plasma; type: in vitro ADME; conditions: 37°C, 6 h
Protocol: as §1, §2
A suitable internal standard was added to each sample (1 µl of a 0.5 mM stock solution in DMSO). […]
as §3
The result is stated as "% intact compound remaining after 4 h or 6 h" and means that from the amount of material at the start of the experiment the stated percentage is detected as unchanged material at the end of the experiment by LC-MS quantification. […]

| Compound | % intact compound remaining after incubation ([1]; 4 h) | HL (HEK-FAP cells) | pKD (HEK-FAP cells) | kon (HEK-FAP cells) | % intact compound remaining after incubation [2] | % intact compound remaining after incubation ([1]; 6 h) |
| --- | --- | --- | --- | --- | --- | --- |
| CS(=O)(=O)c1cccc(-c2ccc3c(C(=O)NCC(=O)N4CC(F)(F)C[C@H]4C#N)ccnc3c2)c1 [Compound 3BP-3127] | > 95% (4 h) |  |  |  |  |  |
| O=C(O)CN1CCN(CC(=O)O)CCN(CC(=O)N2CCN(CCNC(=O)c3cccc(-c4ccc5nccc(C(=O)NCC(=O)N6CCC[C@H]6C(=O)c6nc7ccccc7o6)c5c4)c3)CC2)CCN(CC(=O)O)CC1 [Compound 3BP-4664] |  | 1030 ± 1439 min | 9.3 ± 0.7 | 160000 M⁻¹ s⁻¹ |  |  |
| O=C(NCC(=O)N1CCC[C@H]1C(=O)c1ncco1)c1ccnc2ccccc12 [Compound 3BP-3208] | 92% (4 h) |  |  |  |  |  |
| O=C(O)CN1CCN(CC(=O)O)CCN(CC(=O)N2CCN(CCCOc3ccc4nccc(C(=O)NCC(=O)N5C[C@@H](F)C[C@H]5C(=O)c5nc6ccccc6o5)c4c3)CC2)CCN(CC(=O)O)CC1 [Compound 3BP-4809] |  | 18 ± 1 min | 8.2 ± 0.1 |  |  |  |
| O=C(O)CN1CCN(CC(=O)O)CCN(CC(=O)N2CCN(CCNC(=O)c3ccc(-c4ccc5nccc(C(=O)NCC(=O)N6CCC[C@H]6C(=O)c6nc7ccccc7o6)c5c4)cc3)CC2)CCN(CC(=O)O)CC1 [Compound 3BP-4663] |  | 1477 ± 2013 min | 9.8 ± 0.7 | 150000 M⁻¹ s⁻¹ | 89% (6 h) | 92% (6 h) |
| O=C(O)CN1CCN(CC(=O)O)CCN(CC(=O)N2CCN(CCCOc3ccc4nccc(C(=O)NCC(=O)N5CCC[C@H]5C(=O)c5nc6ccccc6o5)c4c3)CC2)CCN(CC(=O)O)CC1 [Compound 3BP-4808] |  | 20 ± 5 min | 8.2 ± 0.0 | 94000 M⁻¹ s⁻¹ |  |  |
| O=C(NCC(=O)N1CCC[C@H]1C(=O)c1nc2ccccc2o1)c1ccnc2c1=CCCC=2 [Compound 3BP-3205] | > 95% (4 h) |  |  |  |  |  |
| O=C(O)CN1CCN(CC(=O)O)CCN(CC(=O)N2CCN(CCNC(=O)c3cccc(-c4ccc5c(C(=O)NCC(=O)N6CCC[C@H]6C(=O)c6nc7ccccc7o6)ccnc5c4)c3)CC2)CCN(CC(=O)O)CC1 [Compound 3BP-4694] |  | 3946 ± 1189 min | 10.3 ± 0.1 | 57000 M⁻¹ s⁻¹ |  | 90% (6 h) |
| O=C(O)CN1CCN(CC(=O)O)CCN(CC(=O)N2CCN(CCNC(=O)c3ccc(-c4ccc5nccc(C(=O)NCC(=O)N6CCC[C@H]6C(=O)c6nc7ccccc7o6)c5c4)cn3)CC2)CCN(CC(=O)O)CC1 [Compound 3BP-4811] |  | 27 ± 12 min | 8.3 ± 0.2 |  |  |  |
| CS(=O)(=O)c1ccc(-c2ccc3c(C(=O)NCC(=O)N4CCC[C@H]4C#N)ccnc3c2)cc1 [Compound 3BP-3128] | > 95% (4 h) |  |  |  |  |  |
| CS(=O)(=O)c1cccc(-c2ccc3nccc(C(=O)NCC(=O)N4CC(F)(F)C[C@H]4C#N)c3c2)c1 [Compound 3BP-3126] | 78% (4 h) |  |  |  |  |  |
| CN(CCCN1CCN(C(=O)CN2CCN(CC(=O)O)CCN(CC(O)O)CCN(CC(=O)O)CC2)CC1)c1ccc2nccc(C(=O)NCC(=O)N3CC(F)(F)C[C@H]3C#N)c2c1 [Compound 3BP-4200, reference compound] |  | 1798 ± 24 min | 10.4 ± 0.0 |  |  |  |
| O=C(O)CN1CCN(CC(=O)O)CCN(CC(=O)N2CCN(CCNC(=O)c3ccc(-c4ccc5c(C(=O)NCC(=O)N6CCC[C@H]6C(=O)c6nc7ccccc7o6)ccnc5c4)cc3)CC2)CCN(CC(=O)O)CC1 [Compound 3BP-4665] |  | 22 ± 16 min | 8.8 ± 0.2 | 220000 M⁻¹ s⁻¹ |  |  |
